Drawing on DBAASP, this text covers MIC for twelve compounds.

Molecules are shown by their SMILES. ≈ marks a conversion by molar mass, not a printed value.

The MIC is the lowest concentration that inhibits growth of the organism. A high value points to weaker potency.

What all share (experiment): ≥ marks a high value that may be exact or a test limit, other limits are often not marked, values filed in µg/mL are converted to µM
Test [1] has as its system Bacillus subtilis.
Test [2] deals with Staphylococcus aureus ATCC 2592.
The subject of test [3] is Candida albicans ATCC 2002.
Test [4] relates to Escherichia coli ATCC 25922.
For test [5], the system named is Shigella dysenteriae.
The test system of test [6] is Escherichia coli.
Test [7] has as its system Staphylococcus aureus.
For test [8], the system named is Staphylococcus epidermidis.
Test [9] concerns Proteus mirabilis.
Test [10] has as its system Salmonella typhimurium.
Test [11] has as its system Micrococcus luteus.
In test [12] the test system is Pseudomonas aeruginosa.
The subject of test [13] is Klebsiella pneumoniae.
Test [14] relates to Bacillus subtilis ATCC 6633.
The test system of test [15] is Staphylococcus aureus ATCC 6538.
Test [16] concerns Pseudomonas aeruginosa ATCC 9027.

For `CC[C@H](C)[C@@H]1NC(=O)[C@H](CO)NC(=O)[C@H](CCCCN)NC(=O)[C@H]([C@@H](C)O)NC(=O)[C@H](Cc2c[nH]c3ccccc23)NC(=O)[C@@H](NC(=O)CNC(=O)[C@H](CCCCN)NC(=O)[C@H](CC(C)C)NC(=O)[C@H](C)NC(=O)[C@H](C)N)CSSC[C@@H](C(=O)N[C@@H](Cc2ccccc2)C(=O)NCC(=O)N[C@@H](Cc2ccccc2)C(=O)O)NC(=O)[C@@H]2CCCN2C(=O)[C@H](CCCCN)NC(=O)[C@@H]2CCCN2C(=O)[C@@H]2CCCN2C1=O` [AALKGCWTKSIPPKPCFGF], the MIC was found to be 1.19 µM (≈ 2.44 µg/mL) in test [1], 1.03 µM (≈ 2.12 µg/mL) in test [2], 2.32 µM (≈ 4.76 µg/mL) in [3] and 1.38 µM (≈ 2.84 µg/mL) in test [4].

As to `CC(C)C[C@H](NC(=O)[C@@H](NC(=O)[C@H](CCCCN)NC(=O)[C@H](CO)NC(=O)[C@H](C)NC(=O)[C@@H](NC(=O)[C@H](CCCCN)NC(=O)[C@H](Cc1ccccc1)NC(=O)[C@H](CC(C)C)NC(=O)[C@H](C)NC(=O)CNC(=O)[C@H](CC(C)C)NC(=O)[C@H](C)N)C(C)C)C(C)C)C(=O)O` [ALGALFKVASKVL], the MIC in test [5] was not below 152 µM; in test [6] it was 38 µM (≈ 50 µg/mL); in [7], 9.49 µM (≈ 12.5 µg/mL); in test [8], not below 38 µM; in test [1] it was 19 µM (≈ 25 µg/mL); in [9] it was not below 152 µM. Further, the MIC in test [10] is not below 152 µM; in test [11] it was not below 152 µM; in test [12], 152 µM (≈ 200 µg/mL); in [13] it was 76 µM (≈ 100 µg/mL).

For `CC(C)C[C@H](NC(=O)[C@H](C)NC(=O)CNC(=O)[C@H](CC(C)C)NC(=O)[C@@H](N)Cc1ccccc1)C(=O)N[C@@H](Cc1ccccc1)C(=O)N[C@@H](Cc1c[nH]c2ccccc12)C(=O)N[C@H](C(=O)N[C@@H](C)C(=O)N[C@@H](CO)C(=O)N[C@@H](CCCCN)C(=O)O)C(C)C` [FLGALFWVASK], the MIC in test [5] is not below 161 µM; in test [6], more than 161 µM; in test [7], more than 161 µM; in [8] it was not below 161 µM; in test [1], not below 161 µM; in test [9], not below 161 µM. The MIC in [10] was not below 161 µM; in test [11], not below 161 µM; in [12], more than 161 µM; in [13] it was more than 161 µM.

In the case of `CC(C)C[C@H](NC(=O)[C@@H](N)Cc1ccccc1)C(=O)NCC(=O)N[C@@H](C)C(=O)N[C@@H](Cc1c[nH]c2ccccc12)C(=O)N[C@@H](Cc1ccccc1)C(=O)N[C@@H](CCCCN)C(=O)N[C@H](C(=O)N[C@@H](C)C(=O)N[C@@H](CO)C(=O)N[C@@H](CCCCN)C(=O)O)C(C)C` [FLGAWFKVASK], the MIC in [5] is not below 160 µM; in [6] it was more than 160 µM; in test [7], more than 160 µM; in test [8], not below 160 µM; in [1] it was not below 160 µM; in test [9], not below 160 µM. Further, the MIC in [10] is not below 160 µM; in test [11], not below 160 µM; in test [12] it was more than 160 µM; in test [13] it was more than 160 µM.

In the case of `CC[C@H](C)[C@H](NC(=O)[C@H](CCCCN)NC(=O)[C@@H]1CCCN1C(=O)[C@H](Cc1ccccc1)NC(=O)[C@@H](NC(=O)[C@H](CO)NC(=O)CNC(=O)[C@H](CC(C)C)NC(=O)[C@H](C)NC(=O)[C@H](CCCCN)NC(=O)[C@H](CC(C)C)NC(=O)[C@H](C)NC(=O)[C@@H](NC(=O)[C@@H]1CCCN1C(=O)[C@H](CC(C)C)NC(=O)[C@@H](N)Cc1ccccc1)[C@@H](C)CC)[C@@H](C)CC)C(=O)N[C@@H](CC(C)C)C(N)=O` [FLPIALKALGSIFPKIL], the minimal inhibitory concentration (MIC) in test [14] amounted to 27.2 µM (≈ 50 µg/mL); in test [2], 6.79 µM (≈ 12.5 µg/mL).

As to `CC[C@H](C)[C@H](NC(=O)[C@@H]1CCCN1C(=O)[C@H](CC(C)C)NC(=O)[C@@H](N)Cc1ccccc1)C(=O)N[C@H](C(=O)NCC(=O)N[C@@H](CCCCN)C(=O)N[C@@H](CC(C)C)C(=O)N[C@@H](CC(C)C)C(=O)N[C@@H](CO)C(=O)NCC(=O)N[C@@H](CC(C)C)C(=O)N[C@@H](CO)C(=O)NCC(=O)N[C@@H](CC(C)C)C(=O)N[C@@H](CC(C)C)C(N)=O)C(C)C` [FLPIVGKLLSGLSGLL], the MIC in [5] was 0.922 µM (≈ 1.5 µg/mL); in test [2] it was 1.23 µM (≈ 2 µg/mL); in test [3], 4 µM (≈ 6.5 µg/mL); in test [4] it was 1.84 µM (≈ 3 µg/mL).

In the case of `CC[C@H](C)[C@H](NC(=O)CNC(=O)[C@H](CO)NC(=O)[C@H](CC(C)C)NC(=O)[C@@H](N)Cc1ccccc1)C(=O)N[C@@H](CC(C)C)C(=O)N[C@@H](CCCCN)C(=O)N[C@@H](CC(C)C)C(=O)N[C@@H](C)C(=O)N[C@@H](Cc1ccccc1)C(=O)N[C@@H](CCCCN)C(=O)N[C@H](C(=O)N1CCC[C@H]1C(=O)N[C@@H](CO)C(=O)N[C@H](C(=O)N[C@@H](CC(C)C)C(=O)N[C@H]1CSSC[C@@H](C(=O)O)NC(=O)[C@H](CC(N)=O)NC(=O)[C@H](CCCCN)NC(=O)[C@H](CC(C)C)NC(=O)[C@H](C(C)C)NC(=O)[C@H](C)NC1=O)C(C)C)[C@@H](C)CC` [FLSGILKLAFKIPSVLCAVLKNC], the MIC came to 20.2 µM (≈ 50 µg/mL) in test [1], 5.04 µM (≈ 12.5 µg/mL) in [2], 10.1 µM (≈ 25 µg/mL) in test [3] and 10.1 µM (≈ 25 µg/mL) in test [4].

In the case of `CC(C)C[C@H](NC(=O)[C@H](C)NC(=O)CNC(=O)[C@H](Cc1c[nH]c2ccccc12)NC(=O)[C@@H](N)Cc1ccccc1)C(=O)N[C@@H](Cc1ccccc1)C(=O)N[C@@H](CCCCN)C(=O)N[C@H](C(=O)N[C@@H](C)C(=O)N[C@@H](CO)C(=O)N[C@@H](CCCCN)C(=O)O)C(C)C` [FWGALFKVASK], the MIC in [5] was not below 160 µM; in test [6] it was 79.8 µM (≈ 100 µg/mL); in test [7], 19.9 µM (≈ 25 µg/mL); in test [8], not below 79.8 µM; in test [1], not below 39.9 µM; in [9], not below 160 µM. Also, the MIC was not below 160 µM in test [10], not below 79.8 µM in test [11], more than 160 µM in [12] and 79.8 µM (≈ 100 µg/mL) in test [13].

In turn, `CC(C)C[C@H](NC(=O)CNC(=O)[C@@H](NC(=O)[C@@H]1CCCN1C(=O)[C@H](CC(C)C)NC(=O)CNC(=O)[C@H](CC(N)=O)NC(=O)[C@H](CC(N)=O)NC(=O)[C@H](Cc1ccc(O)cc1)NC(=O)[C@@H](NC(=O)[C@H](CCCN=C(N)N)NC(=O)[C@H](CS)NC(=O)[C@H](CCCN=C(N)N)NC(=O)[C@H](Cc1cnc[nH]1)NC(=O)[C@H](CCCCN)NC(=O)[C@@H](N)CCCCN)C(C)C)[C@@H](C)O)C(=O)N[C@@H](Cc1ccc(O)cc1)C(=O)N[C@@H](CCCN=C(N)N)C(=O)N[C@@H](Cc1c[nH]c2ccccc12)C(=O)N[C@@H](CS)C(N)=O` [KKHRCRVYNNGLPTGLYRWC] had an MIC in [15] of 2.4 µM (≈ 5.91 µg/mL).

Consider `CC(C)C[C@H](NC(=O)[C@H](CCCCN)NC(=O)[C@H](CCCCN)NC(=O)[C@H](C)NC(=O)[C@H](CC(C)C)NC(=O)[C@H](CCCCN)NC(=O)[C@H](CCCCN)NC(=O)[C@H](C)NC(=O)[C@H](Cc1ccccc1)NC(=O)[C@H](CCCCN)NC(=O)[C@H](CCCCN)NC(=O)[C@H](Cc1ccccc1)NC(=O)[C@H](CC(C)C)NC(=O)[C@H](CCCCN)NC(=O)[C@@H](NC(=O)[C@H](CCCCN)NC(=O)[C@H](CCCCN)NC(=O)[C@H](CCCCN)NC(=O)[C@H](Cc1ccccc1)NC(=O)[C@H](CC(C)C)NC(=O)[C@H](CCCCN)NC(=O)[C@H](Cc1c[nH]c2ccccc12)NC(=O)[C@@H](N)CCCCN)[C@@H](C)O)C(=O)O` [KWKLFKKKTKLFKKFAKKLAKKL], for which the MIC in [16] was more than 69.5 µM; in [15], 3.47 µM (≈ 10 µg/mL).

As for `CC[C@H](C)[C@H](NC(=O)[C@H](CC(N)=O)NC(=O)[C@H](CCCN=C(N)N)NC(=O)CNC(=O)[C@H](CCSC)NC(=O)[C@H](CCCCN)NC(=O)[C@H](CCC(=O)O)NC(=O)[C@@H](NC(=O)[C@H](CCCCN)NC(=O)[C@H](CC(C)C)NC(=O)[C@H](Cc1ccccc1)NC(=O)[C@@H](NC(=O)[C@H](CCCCN)NC(=O)[C@H](CCC(=O)O)NC(=O)[C@H](CCCCN)NC(=O)[C@@H]1CCCN1C(=O)[C@@H](N)CCSC)C(C)C)[C@@H](C)CC)C(=O)N[C@@H](CCCN=C(N)N)C(=O)N[C@@H](CC(N)=O)C(N)=O` [MPKEKVFLKIEKMGRNIRN], the MIC in test [16] and in [15] was more than 85.8 µM each time.

On to `CC(C)C[C@H](NC(=O)[C@H](C)NC(=O)CNC(=O)[C@H](CC(C)C)NC(=O)[C@@H](N)Cc1c[nH]c2ccccc12)C(=O)N[C@@H](Cc1ccccc1)C(=O)N[C@@H](CCCCN)C(=O)N[C@H](C(=O)N[C@@H](C)C(=O)N[C@@H](CO)C(=O)N[C@@H](CCCCN)C(=O)O)C(C)C` [WLGALFKVASK], for which the MIC in test [5] was not below 164 µM; in test [6] it was 164 µM (≈ 200 µg/mL); in [7] it was 82 µM (≈ 100 µg/mL); in [8], not below 164 µM; in test [1], not below 82 µM; in [9] it was not below 164 µM. Further, the MIC in test [10] is not below 164 µM; in [11], not below 82 µM; in test [12], more than 164 µM; in test [13], more than 164 µM.
